Literature values, collected in patent US8329663B2, “Compositions and methods for the treatment of chronic infections” (priority 2008, dated 2012).
Like-named read-outs stand apart in the source and are kept apart here.

Experiments:
[1] = in water
[2] = test system: C. pneumoniae
[3] = first (or only) pKa value listed
[4] = second pKa value listed (polyprotic)
[5] = third pKa value listed (polyprotic)

Compound | pKa (in H2O) [1, 3] | pKa (in H2O) [1, 4] | pKa (in H2O) [1, 5] | in vitro susceptibility of C. pneumoniae [2]
Cc1nc2n(c(=O)c1CCN1CCC(c3noc4cc(F)ccc34)CC1)CCCC2O (stereo not shown) [9-Hydroxy-risperidone] | 2.77 | 7.86 | – | –
C[C@H](N)C(=O)N[C@@H](C)C(=O)N[C@H]1[C@@H]2CN(c3nc4c(cc3F)c(=O)c(C(=O)O)cn4-c3ccc(F)cc3F)C[C@@H]21 [Alatrofloxacin] | 0.64 | 8.12 | – | –
CC1(C)S[C@@H]2[C@H](NC(=O)[C@H](N)c3ccc(O)cc3)C(=O)N2[C@H]1C(=O)O [Amoxicillin] | 2.8 | 7.2 | – | –
CC(C)CN(C[C@@H](O)[C@H](Cc1ccccc1)NC(=O)O[C@H]1CCOC1)S(=O)(=O)c1ccc(N)cc1 [Amprenavir] | 1.76 | 11.54 | – | –
CC(=O)OCC1=C(C(=O)O)N2C(=O)[C@@H](NC(=O)CSc3ccncc3)[C@H]2SC1 [Cephapirin] | 2.15 | 5.44 | – | –
CN(C)CCc1c[nH]c2ccccc12 [Dimethyltryptamine] | 2 | – | – | –
O=C(O)c1cccc(C(=O)O)n1 [Dipicolinic Acid] | – | 4.97 | – | –
C[C@H]1c2cccc(O)c2C(=O)C2=C(O)[C@]3(O)C(=O)C(C(N)=O)=C(O)[C@@H](N(C)C)[C@@H]3[C@@H](O)[C@@H]21 [Doxycycline] | 3.5 | 7.7 | 9.5 | –
O=C(O)c1ccccc1Nc1cccc(C(F)(F)F)c1 [Flufenamic acid] | 3.9 | – | – | –
CCOC(=O)c1ncn2c1CN(C)C(=O)c1cc(F)ccc1-2 [Flumazenil] | 1.7 | – | – | –
OCCOCCN1CCN(C(c2ccccc2)c2ccc(Cl)cc2)CC1 (stereo not shown) [Hydroxyzine] | 1.8 | – | – | –
NNC(=O)c1ccncc1 [Isoniazid] | 1.82 | – | – | –
C[N+](C)(C)C[C@H](O)CC(=O)[O-] [L-carnitine] | 3.8 | – | – | –
Cc1ccccc1-n1c(C)nc2ccccc2c1=O [Methaqualone] | 2.5 | – | – | –
NCC1(CC(=O)O)CCCCC1 [Neurontin] | 3.68 | 10.70 | – | –
COc1ccc2[nH]c([S+]([O-])Cc3ncc(C)c(OC)c3C)nc2c1 (stereo not shown) [Omeprazole] | – | 8.8 | – | –
CCCN(CCC)S(=O)(=O)c1ccc(C(=O)O)cc1 [Probenicid] | 3.4 | – | – | –
CN(C)CCc1c[nH]c2cccc(OP(=O)(O)O)c12 [Psilocybin] | 0.2 | – | – | –
CO[C@H]1/C=C/O[C@@]2(C)Oc3c(C)c(O)c4c(O)c(c(/C=N/N5CCN(C)CC5)c(O)c4c3C2=O)NC(=O)/C(C)=C\C=C\[C@H](C)[C@H](O)[C@@H](C)[C@@H](O)[C@@H](C)[C@H](OC(C)=O)[C@@H]1C [Rifampin] | 1.7 | 7.9 | – | –
O=P(O)(O)C(O)(Cc1cccnc1)P(=O)(O)O [Risedronic acid] | 0.32 | 5.09 | – | –
CCS(=O)(=O)CCn1c([N+](=O)[O-])cnc1C [Tinidazole] | 2.34 | – | – | –
CC(C)[C@H](N)C(=O)OCCOCn1cnc2c(=O)[nH]c(N)nc21 [Valacyclovir] | 1.90 | 7.47 | 9.43 | –
CC[C@H]1OC(=O)[C@H](C)[C@@H](O[C@H]2C[C@@](C)(OC)[C@@H](O)[C@H](C)O2)[C@H](C)[C@@H](O[C@@H]2O[C@H](C)C[C@H](N(C)C)[C@H]2O)[C@](C)(OC)C[C@@H](C)C(=O)[C@H](C)[C@@H](O)[C@]1(C)O [clarithromycin] | – | – | – | susceptible in vitro
CC[C@H]1OC(=O)[C@H](C)[C@@H](O[C@H]2C[C@@](C)(OC)[C@@H](O)[C@H](C)O2)[C@H](C)[C@@H](O[C@@H]2O[C@H](C)C[C@H](N(C)C)[C@H]2O)[C@](C)(O)C[C@@H](C)C(=O)[C@H](C)[C@@H](O)[C@]1(C)O [erythromycin] | – | – | – | susceptible in vitro
C[C@@H]1CN(c2c(F)c(N)c3c(=O)c(C(=O)O)cn(C4CC4)c3c2F)C[C@H](C)N1 [sparfloxacin] | – | – | – | susceptible in vitro
